Assays:
C33A cells = assay: MTT antiproliferative assay on C33A; type: cell-based, human; conditions: for inhibition at 10 µM / inhibition at 30 µM: read-out: Growth inhibition (% ± SEM), C33a
Experimental: (§1) The antiproliferative assays of the products were carried out by a standard MTT method on human breast (MCF-7, T47D), cervical (HeLa, SiHa, C33A), and ovarian (A2780) cancer cells, and NIH/3T3 mouse embryonic fibroblast cell lines. In the first step, the diastereomeric and racemic mixtures 1–11 and the starting compound, juncuenin B, were tested to obtain information about their antiproliferative activity.
(§2) The antiproliferative activity and tumor selectivity of the compounds were measured by standard MTT assays. Tumor cell lines MCF-7, T47D, HeLa, A2780, and noncancerous NIH/3T3 were provided by European Collection of Authenticated Cell Cultures (ECACC, Salisbury, UK); cell lines SiHa and C33A by LGC Standards GmbH (Wesel, Germany). All chemicals and materials used for the antiproliferative assays were purchased from Sigma Aldrich Ltd. (Budapest, Hungary).
(§3) Growth-inhibition properties of racemates and pure enantiomer compounds were determined by standard MTT assays on six human malignant gynecological cell lines (MCF-7, T47D, HeLa, SiHa, C33A, A2780). To investigate tumor selectivity, the MTT assay was repeated on mouse embryonic fibroblast cells (NIH/3T3) under the same conditions. All cell lines were maintained in minimal essential medium (MEM) supplemented with 10% fetal bovine serum, 1% nonessential amino acids, and 1% penicillin–streptomycin–amphotericin B mixture, and were stored in humidified air containing 5% CO2 at 37 °C. All cell types were seeded into 96–well plates at a density of 5000 with the exception of C33a, which was seeded at a density of 10 000 and treated by increasing concentrations (0.1–30 μM) of the compounds for 72 h under cell culturing conditions. After the incubation, 5 mg/mL MTT [3-(4,5-dimethylthiazol-2-yl)-2,5-diphenyltetrazolium bromide] solution was added to samples for 4 h and precipitated blue formazan crystals were dissolved in DMSO. Absorbance values of the samples were measured at 545 nm using a microplate reader (Stat Fax-2100, Awareness Technologies Inc., Palm City, FL, USA) and untreated cells were used as control. Normalized sigmoidal dose–response curves were fitted to the determined data and the IC50 values were calculated by GraphPad Prism 5.01 (GraphPad Software, San Diego, CA, USA). Cisplatin (Ebewe Pharma GmbH, Unterach, Austria) was used as a reference agent in the same concentration range.

T47D cells = assay: MTT antiproliferative assay on T47D; type: cell-based, human; conditions: for inhibition at 10 µM / IC50 / inhibition at 30 µM: Homo sapiens, T47D; for inhibition at 10 µM / inhibition at 30 µM: read-out: Growth inhibition (% ± SEM), T47d; for IC50: MTT, 0.1–30 μM, 72 h, mean ± SEM, read-out: calculated IC50 values, T47D
Experimental: as §1, §2, §3

[1] = system: NIH/3T3 mouse embryonic fibroblast cells; assay: MTT assay for tumor selectivity on NIH/3T3; type: cell-based; conditions: Mus musculus, NIH3T3; for IC50: MTT, 0.1–30 μM, 72 h, mean ± SEM, read-out: calculated IC50 values, NIH/3T3
Experimental: as §1, §2, §3

MCF-7 cells = assay: MTT antiproliferative assay on MCF-7; type: cell-based, human; conditions: for inhibition at 10 µM / IC50 / inhibition at 30 µM: Homo sapiens; for inhibition at 10 µM: MCF7, 10 μM; for inhibition at 10 µM / inhibition at 30 µM: read-out: Growth inhibition (% ± SEM), MCF-7; for IC50: MCF7, MTT, 0.1–30 μM, 72 h, mean ± SEM, read-out: calculated IC50 values, MCF-7; for inhibition at 30 µM: MCF7, 30 μM
Experimental: as §1, §2, §3

SiHa cells = assay: MTT antiproliferative assay on SiHa; type: cell-based, human; conditions: for inhibition at 10 µM / IC50 / inhibition at 30 µM: Homo sapiens, SiHa; for inhibition at 10 µM / inhibition at 30 µM: read-out: Growth inhibition (% ± SEM), SiHa; for IC50: MTT, 0.1–30 μM, 72 h, mean ± SEM, read-out: calculated IC50 values, SiHa
Experimental: as §1, §2, §3

HeLa cells = assay: MTT antiproliferative assay on HeLa; type: cell-based, human; conditions: for inhibition at 10 µM / IC50 / inhibition at 30 µM: Homo sapiens, HeLa; for inhibition at 10 µM / inhibition at 30 µM: read-out: Growth inhibition (% ± SEM), HeLa; for IC50: MTT, 0.1–30 μM, 72 h, mean ± SEM, read-out: calculated IC50 values, HeLa
Experimental: as §1, §2, §3

A2780 cells = assay: MTT antiproliferative assay on A2780; type: cell-based, human; conditions: for IC50 / inhibition at 10 µM / inhibition at 30 µM: Homo sapiens; for IC50: A2780, MTT, 0.1–30 μM, 72 h, mean ± SEM, read-out: calculated IC50 values, A2780; for inhibition at 10 µM: A2780, 10 μM; for inhibition at 10 µM / inhibition at 30 µM: read-out: Growth inhibition (% ± SEM), A2780; for inhibition at 30 µM: A2780, 30 μM
Experimental: as §1, §2, §3

## C=CC1=C(C)C(=O)C=C2C3=C(CCC21OCC)C(C)(OCC)C(=O)C=C3 (single isomer, unassigned) [Compound 6a]
C33A cells; 10 μM
  Growth inhibition (% ± SEM), C33a: 21.08±1.92%
C33A cells; 30 μM
  Growth inhibition (% ± SEM), C33a: 93.17±0.50%
C33A cells; Homo sapiens, C-33-A, MTT, 0.1–30 μM, 72 h, mean ± SEM, read-out: calculated IC50 values, C33A
  IC50: 14.1 ± 0.2 µM
T47D cells; 30 μM
  Growth inhibition (% ± SEM), T47d: 63.48±0.80%
T47D cells; 10 μM
  inhibition at 10 µM: < 10%
T47D cells
  IC50: 22.9 ± 1.6 µM
[1]
  IC50: 24.5 ± 1.9 µM
MCF-7 cells; 30 μM
  Growth inhibition (% ± SEM), MCF-7: 45.64±0.26%
MCF-7 cells
  inhibition at 10 µM: 19.6 ± 1.7%
  IC50: > 30 µM
SiHa cells; 30 μM
  Growth inhibition (% ± SEM), SiHa: 68.74±1.56%
SiHa cells; 10 μM
  inhibition at 10 µM: < 10%
SiHa cells
  IC50: 29.7 ± 0.2 µM
HeLa cells; 30 μM
  Growth inhibition (% ± SEM), HeLa: 67.85±1.23%
HeLa cells; 10 μM
  inhibition at 10 µM: < 10%
HeLa cells
  IC50: 25.9 ± 0.3 µM
A2780 cells; 10 μM
  Growth inhibition (% ± SEM), A2780: 43.71±2.91%
A2780 cells; 30 μM
  Growth inhibition (% ± SEM), A2780: 93.85±0.75%
A2780 cells
  IC50: 11.2 ± 0.3 µM

## C=CC1=C(C)C(=O)C=C2C3=C(CCC21OCC)C(C)(OCC)C(=O)C=C3 (single isomer, unassigned) [Compound 6b]
C33A cells; 10 μM
  Growth inhibition (% ± SEM), C33a: < 10%
C33A cells; 30 μM
  Growth inhibition (% ± SEM), C33a: < 10%
T47D cells; 10 μM
  Growth inhibition (% ± SEM), T47d: < 10%
T47D cells; 30 μM
  Growth inhibition (% ± SEM), T47d: < 10%
MCF-7 cells; 10 μM
  Growth inhibition (% ± SEM), MCF-7: 14.17±2.25%
MCF-7 cells; 30 μM
  Growth inhibition (% ± SEM), MCF-7: 21.81±2.36%
SiHa cells; 10 μM
  Growth inhibition (% ± SEM), SiHa: < 10%
SiHa cells; 30 μM
  Growth inhibition (% ± SEM), SiHa: < 10%
HeLa cells; 10 μM
  Growth inhibition (% ± SEM), HeLa: < 10%
HeLa cells; 30 μM
  Growth inhibition (% ± SEM), HeLa: < 10%
A2780 cells; 10 μM
  Growth inhibition (% ± SEM), A2780: < 10%
A2780 cells; 30 μM
  Growth inhibition (% ± SEM), A2780: < 10%

## C=CC1=C(C)C(=O)C=C2C3=C(CCC21OC)C(C)(OC)C(=O)C=C3 (stereo not drawn) [1a–1d, 2,6-dioxo-1,8a-dimethoxy-1,7-dimethyl-8-vinyl-9,10-dihydrophenanthrenes]
C33A cells; Homo sapiens, C-33-A, 10 μM
  inhibition at 10 µM: 74.3 ± 0.8%
C33A cells; Homo sapiens, C-33-A, 30 μM
  inhibition at 30 µM: 94.97 ± 0.12%
T47D cells; 10 μM
  inhibition at 10 µM: 14.6 ± 4.44%
T47D cells; 30 μM
  inhibition at 30 µM: 76 ± 2.1%
[1]
  IC50: 17.7 ± 0.7 µM
MCF-7 cells
  inhibition at 10 µM: 28.7 ± 1.81%
  inhibition at 30 µM: 67.1 ± 1.9%
  IC50: 11.6 µM
SiHa cells; 10 μM
  inhibition at 10 µM: 18.1 ± 3.53%
SiHa cells; 30 μM
  inhibition at 30 µM: 77.9 ± 0.78%
SiHa cells
  IC50: 20 µM
HeLa cells; 10 μM
  inhibition at 10 µM: 12.7 ± 1.94%
HeLa cells; 30 μM
  inhibition at 30 µM: 86.7 ± 1.22%
A2780 cells
  inhibition at 10 µM: 67.1 ± 1.37%
  inhibition at 30 µM: 94.93 ± 0.94%

## C=CC1=C(C)C(=O)C=C2C3=C(CC[C@@]21OC)[C@@](C)(OC)C(=O)C=C3 [Compound 1a, 2,6-dioxo-1,8a-dimethoxy-1,7-dimethyl-8-vinyl-9,10-dihydrophenanthrenes]
C33A cells; Homo sapiens, C-33-A, 10 μM
  inhibition at 10 µM: 19.5 ± 2.08%
C33A cells; Homo sapiens, C-33-A, 30 μM
  inhibition at 30 µM: 87.97 ± 0.34%
T47D cells; 10 μM
  inhibition at 10 µM: 14.1 ± 1.87%
T47D cells; 30 μM
  inhibition at 30 µM: 32.5 ± 1.96%
T47D cells
  IC50: > 30 µM
[1]; 10 μM, read-out: Growth inhibition (% ± SEM), NIH
  inhibition at 10 µM: < 10%
[1]; 30 μM, read-out: Growth inhibition (% ± SEM), NIH
  inhibition at 30 µM: 32.1 ± 1.88%
[1]
  IC50: > 30 µM
MCF-7 cells
  inhibition at 10 µM: < 10%
  inhibition at 30 µM: 33.1 ± 1.15%
  IC50: > 30 µM
SiHa cells; 10 μM
  inhibition at 10 µM: < 10%
SiHa cells; 30 μM
  inhibition at 30 µM: < 10%
SiHa cells
  IC50: > 30 µM
HeLa cells; 10 μM
  inhibition at 10 µM: < 10%
HeLa cells; 30 μM
  inhibition at 30 µM: 47.8 ± 3.28%
HeLa cells
  IC50: > 30 µM
A2780 cells
  inhibition at 10 µM: 25.1 ± 1.6%
  inhibition at 30 µM: 87.7 ± 1.1%
  IC50: 13.3 ± 1.5 µM

— publication PMC7707621, “Oxidized Juncuenin B Analogues with Increased Antiproliferative Activity on Human Adherent Cell Lines: Semisynthesis and Biological Evaluation” (Journal of Natural Products, 2020)
